# Test results as given in patent US20250288683A1, “TETRAHYDROISOQUINOLINE HETEROBIFUNCTIONAL BCL-XL DEGRADERS” (Treeline Biosciences, Inc., priority 2022, published 2025).
# Molecular target: T1, Human BCL-XL protein (N-terminal HiBiT tagged BCL-XL in HT1080 cells) (Homo sapiens, UniProt Q07817)
# T1 construct: expressed in transfected cells; host or cells: HT-1080 (ATCC CCL-121), stably transduced with lentivirus pLV-UBC-N-HiBiT-BCL-XL-PGK-puro and selected with puromycin
# Test: HiBiT based degradation assay
# Format: cell-based
# Details: HT1080 cells expressing N-terminal HiBiT tagged BCL-XL, 24 h, normalized with DMSO control
# T1 sequence (Q07817 whole entry): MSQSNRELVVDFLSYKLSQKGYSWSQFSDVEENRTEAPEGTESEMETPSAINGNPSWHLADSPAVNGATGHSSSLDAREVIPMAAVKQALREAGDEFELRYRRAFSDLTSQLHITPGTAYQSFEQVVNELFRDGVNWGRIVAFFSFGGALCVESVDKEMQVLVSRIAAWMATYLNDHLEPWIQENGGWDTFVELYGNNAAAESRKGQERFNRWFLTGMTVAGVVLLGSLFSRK
row,Ymin (24 h),SMILES
1,A (Ymin < 50%),"Cc1ncsc1-c1ccc(CNC(=O)[C@@H]2C[C@@H](O)CN2C(=O)[C@@H](NC(=O)C2(F)CC2)C(C)(C)SCCCCCCCCOc2cccc(-c3ccc(N4CCc5cccc(C(=O)Nc6nc7ccccc7s6)c5C4)nc3C(=O)O)c2C)cc1 [Compound 136a, 6-(8-(benzo[d]thiazol-2-ylcarbamoyl)-3,4-dihydroisoquinolin-2 (1H)-yl)-3-(3-((8-(((R)-3-(1-fluorocyclopropane-1-carboxamido)-4-((2S,4R)-4-hydroxy-2-((4-(4-methylthiazol-5-yl)benzyl)carbamoyl)pyrrolidin-1-yl)-2-methyl-4-oxobutan-2-yl)thio)octyl)oxy)-2-methylphenyl)picolinic acid]"
2,B (50% ≤ Ymin < 70%),"Cc1ncsc1-c1ccc(CNC(=O)[C@@H]2C[C@@H](O)CN2C(=O)[C@@H](NC(=O)C2(F)CC2)C(C)(C)SCCCCCCCCCCOc2cccc(-c3ccc(N4CCc5cccc(C(=O)Nc6nc7ccccc7s6)c5C4)nc3C(=O)O)c2C)cc1 [Compound 137a, 6-(8-(benzo[d]thiazol-2-ylcarbamoyl)-3,4-dihydroisoquinolin-2 (1H)-yl)-3-(3-((10-(((R)-3-(1-fluorocyclopropane-1-carboxamido)-4-((2S,4R)-4-hydroxy-2-((4-(4-methylthiazol-5-yl)benzyl)carbamoyl)pyrrolidin-1-yl)-2-methyl-4-oxobutan-2-yl)thio)decyl)oxy)-2-methylphenyl)picolinic acid]"
3,A (Ymin < 50%),Cc1ncsc1-c1ccc([C@H](C)NC(=O)[C@@H]2C[C@@H](O)CN2C(=O)[C@@H](NC(=O)C(F)(F)CCc2ccc(Oc3cccc(-c4ccc(N5CCc6cccc(C(=O)Nc7nc8ccccc8s7)c6C5)nc4C(=O)O)c3C)cc2)C(C)(C)C)cc1 [Compound 139a]
4,B (50% ≤ Ymin < 70%),Cc1ncsc1-c1ccc(CNC(=O)[C@@H]2C[C@@H](O)CN2C(=O)[C@@H](NC(=O)C2(F)CC2)C(C)(C)SCCCCCCCOc2cccc(-c3ccc(N4CCc5cccc(C(=O)Nc6nc7ccccc7s6)c5C4)nc3C(=O)O)c2C)cc1 [Compound 140a]
5,A (Ymin < 50%),Cc1ncsc1-c1ccc(CNC(=O)[C@@H]2C[C@@H](O)CN2C(=O)[C@@H](NC(=O)C2(F)CC2)C(C)(C)SCCCCCCCCCOc2cccc(-c3ccc(N4CCc5cccc(C(=O)Nc6nc7ccccc7s6)c5C4)nc3C(=O)O)c2C)cc1 [Compound 141a]
6,B (50% ≤ Ymin < 70%),Cc1ncsc1-c1ccc(CNC(=O)[C@@H]2C[C@@H](O)CN2C(=O)[C@@H](NC(=O)C2(F)CC2)C(C)(C)SCCCCCCCCCCCCOc2cccc(-c3ccc(N4CCc5cccc(C(=O)Nc6nc7ccccc7s6)c5C4)nc3C(=O)O)c2C)cc1 [Compound 142a]
7,A (Ymin < 50%),Cc1ncsc1-c1ccc([C@H](C)NC(=O)[C@@H]2C[C@@H](O)CN2C(=O)[C@@H](NC(=O)C(F)(F)[C@H]2CC[C@H](Oc3cccc(-c4ccc(N5CCc6cccc(C(=O)Nc7nc8ccccc8s7)c6C5)nc4C(=O)O)c3C)CC2)C(C)(C)C)cc1 [Compound 144a]
8,C (Ymin ≥ 70%),Cc1ncsc1-c1ccc([C@H](C)NC(=O)[C@@H]2C[C@@H](O)CN2C(=O)[C@@H](NC(=O)C(F)(F)[C@H]2CC[C@@H](Oc3cccc(-c4ccc(N5CCc6cccc(C(=O)Nc7nc8ccccc8s7)c6C5)nc4C(=O)O)c3C)CC2)C(C)(C)C)cc1 [Compound 144b]
